{"source": "patent US4496584A", "about": "“Amidine derivatives with anti-complement activity” (Torii & Co. Ltd., priority 1981, dated 1985)", "key": {"[1]": {"test_system": "complement mediated hemolysis", "assay": "Inhibition of complement mediated hemolysis (method of Baker et al.)", "assay_type": "cell-based"}, "[2]": {"target": "T1, trypsin (Bos taurus, UniProt P00760)", "T1 sequence (P00760 24-246)": "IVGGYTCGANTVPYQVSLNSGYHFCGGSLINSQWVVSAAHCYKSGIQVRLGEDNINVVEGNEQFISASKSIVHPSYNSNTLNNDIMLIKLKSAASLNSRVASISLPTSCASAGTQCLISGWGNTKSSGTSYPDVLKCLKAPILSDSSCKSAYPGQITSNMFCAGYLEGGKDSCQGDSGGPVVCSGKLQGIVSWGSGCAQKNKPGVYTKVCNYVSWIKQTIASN", "assay": "Enzyme inhibition, TAME hydrolysis, trypsin (method of Muramatsu et al.)", "assay_type": "biochemical", "conditions": "read-out: percentage inhibition, trypsin (figure in parentheses)", "method": "(§1) The enzyme inhibitory activity was determined according to the method of Muramatsu et al. [M. Muramatsu, T. Onishi, S. Makino, Y. Hayashi and S. Fujii, J. Biochem., 58, 214 (1965)]. The data summarized in Table 1 are expressed in terms of molar concentration (ID50) of the test compound which inhibits 50% of the activity of each enzyme to hydrolyze TAME (tosylarginine methyl ester)."}, "[3]": {"assay": "Toxicity, lethal dose (LD50)", "conditions": "mouse, in vivo"}, "[4]": {"target": "thrombin (Bos taurus, UniProt P00735)", "assay": "Enzyme inhibition, TAME hydrolysis, thrombin (method of Muramatsu et al.)", "assay_type": "biochemical", "method": "as §1"}, "[5]": {"test_system": "kallikrein", "assay": "Enzyme inhibition, TAME hydrolysis, kallikrein (method of Muramatsu et al.)", "assay_type": "biochemical", "conditions": "1×10^-5 M", "method": "as §1"}, "[6]": {"target": "plasmin (Homo sapiens, UniProt P00747)", "sequence (P00747 581-810 limits assumed)": "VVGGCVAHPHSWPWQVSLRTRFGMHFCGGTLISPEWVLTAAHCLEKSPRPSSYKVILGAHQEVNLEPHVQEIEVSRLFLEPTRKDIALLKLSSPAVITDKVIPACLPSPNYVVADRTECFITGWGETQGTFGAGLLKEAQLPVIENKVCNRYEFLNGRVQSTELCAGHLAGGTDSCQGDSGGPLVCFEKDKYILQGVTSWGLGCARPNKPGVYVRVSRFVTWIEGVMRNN", "sequence (P00747 97-580 partner limits assumed)": "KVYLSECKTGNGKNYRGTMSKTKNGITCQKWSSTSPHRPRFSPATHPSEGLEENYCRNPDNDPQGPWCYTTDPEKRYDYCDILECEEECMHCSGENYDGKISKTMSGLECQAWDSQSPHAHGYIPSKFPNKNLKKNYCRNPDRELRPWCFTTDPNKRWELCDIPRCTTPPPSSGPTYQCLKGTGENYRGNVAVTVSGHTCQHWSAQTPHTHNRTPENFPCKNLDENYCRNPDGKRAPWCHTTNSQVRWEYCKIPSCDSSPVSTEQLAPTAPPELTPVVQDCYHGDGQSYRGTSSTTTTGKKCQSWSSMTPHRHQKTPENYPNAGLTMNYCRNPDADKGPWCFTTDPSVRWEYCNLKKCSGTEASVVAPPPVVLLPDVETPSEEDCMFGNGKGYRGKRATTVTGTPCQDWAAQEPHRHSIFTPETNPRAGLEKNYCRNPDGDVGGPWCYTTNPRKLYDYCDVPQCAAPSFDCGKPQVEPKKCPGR", "assay": "Enzyme inhibition, TAME hydrolysis, plasmin (method of Muramatsu et al.)", "assay_type": "biochemical", "conditions": "read-out: ID50, plasmin", "method": "as §1"}, "[7]": {"target": "T2, Cls (Homo sapiens, UniProt P09871)", "T2 sequence (P09871 438-688 limits assumed)": "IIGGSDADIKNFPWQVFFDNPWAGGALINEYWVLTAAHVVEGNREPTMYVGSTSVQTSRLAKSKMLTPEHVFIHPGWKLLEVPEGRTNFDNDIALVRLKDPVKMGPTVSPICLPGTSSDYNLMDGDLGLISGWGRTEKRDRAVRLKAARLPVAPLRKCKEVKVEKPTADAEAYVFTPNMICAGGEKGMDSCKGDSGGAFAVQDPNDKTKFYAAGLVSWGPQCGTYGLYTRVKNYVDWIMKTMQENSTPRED", "T2 sequence (P09871 16-437 partner limits assumed)": "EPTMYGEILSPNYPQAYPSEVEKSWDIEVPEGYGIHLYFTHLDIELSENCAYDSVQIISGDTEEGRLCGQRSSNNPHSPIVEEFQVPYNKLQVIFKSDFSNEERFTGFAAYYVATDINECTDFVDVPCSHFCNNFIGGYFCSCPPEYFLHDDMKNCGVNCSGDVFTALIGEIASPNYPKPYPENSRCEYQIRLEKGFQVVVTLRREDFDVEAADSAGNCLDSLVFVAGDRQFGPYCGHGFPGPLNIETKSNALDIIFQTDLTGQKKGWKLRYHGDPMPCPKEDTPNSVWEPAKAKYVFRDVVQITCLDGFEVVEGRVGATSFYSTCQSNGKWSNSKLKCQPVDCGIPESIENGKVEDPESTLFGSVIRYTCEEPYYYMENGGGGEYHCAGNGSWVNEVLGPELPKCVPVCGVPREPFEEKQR", "assay": "Anti-Cl esterase activity, Cls (ATEE hydrolysis, method of Okamura et al.)", "assay_type": "biochemical", "conditions": "read-out: Anti-C1 activity, Cls (ID50)", "method": "(§2) The anti-Cl esterase (Clr, Cls) activity was determined according to the method of Okamura et al. [K. Okamura, M. Muramatsu and S. Fujii, Biochem. Biophys. Acta, 295, 252-257 (1973)]. The inhibition of complement mediated hemolysis (percent) was determined according to the method of Baker et al. [B. R. Baker and E. H. Erickson, J. Med. Chem., 12, 408-414 (1969)]. The figures in Table 2 have the following meanings:\nCls: Molar concentration of the test compound which inhibits 50% of the ability of Cls to hydrolyse ATEE (acetyltyrosin ethyl ester) (ID50)."}, "[8]": {"target": "T3, Clr (Homo sapiens, UniProt P00736)", "T3 sequence (P00736 464-705 limits assumed)": "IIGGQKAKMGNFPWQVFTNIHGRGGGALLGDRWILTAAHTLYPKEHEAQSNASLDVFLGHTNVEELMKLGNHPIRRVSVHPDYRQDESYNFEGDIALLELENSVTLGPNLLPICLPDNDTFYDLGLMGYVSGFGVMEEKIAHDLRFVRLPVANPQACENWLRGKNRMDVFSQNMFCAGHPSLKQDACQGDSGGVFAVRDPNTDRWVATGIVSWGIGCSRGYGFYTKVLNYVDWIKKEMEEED", "T3 sequence (P00736 18-463 partner limits assumed)": "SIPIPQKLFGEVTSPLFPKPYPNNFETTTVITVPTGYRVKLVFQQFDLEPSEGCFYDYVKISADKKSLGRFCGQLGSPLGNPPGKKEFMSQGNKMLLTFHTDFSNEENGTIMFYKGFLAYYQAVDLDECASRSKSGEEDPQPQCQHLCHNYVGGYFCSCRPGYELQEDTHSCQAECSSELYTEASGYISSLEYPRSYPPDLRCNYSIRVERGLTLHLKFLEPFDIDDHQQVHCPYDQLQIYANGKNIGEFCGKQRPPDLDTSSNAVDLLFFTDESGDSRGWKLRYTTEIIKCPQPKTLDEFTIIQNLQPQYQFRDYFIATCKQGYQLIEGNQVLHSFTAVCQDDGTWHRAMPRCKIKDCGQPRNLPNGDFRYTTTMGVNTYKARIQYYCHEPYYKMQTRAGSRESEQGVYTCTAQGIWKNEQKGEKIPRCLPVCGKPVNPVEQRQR", "assay": "Anti-Cl esterase activity, Clr (AAME hydrolysis, method of Okamura et al.)", "assay_type": "biochemical", "conditions": "read-out: Anti-C1 activity, Clr (ID50)", "method": "as §2\nClr: Molar concentration of the test compound which inhibits 50% of the ability of Clr to hydrolyse AAME (acetylarginin methyl ester) (ID50)."}, "[9]": {"test_system": "Forssman shock", "assay": "Forssman shock, time elapsed until death", "assay_type": "in vivo, guinea pig", "conditions": "5 minutes before hemolysin", "method": "The experiment was performed according to the method of I. G. Offerness et al. [Biochem. Pharmacol., 27 (14), 1873-1878 (1978)]. Male Hartlay guinea pig of about 300 g in body weight was used. Each guinea pig of the control group was administered intravenously with 0.5 ml (minimum dose to cause the shock) of hemolysin (commercial hemolysin, 5,000 U as assayed by the method of Ogata) and the time elapsed until death was observed. For the test group, each guinea pig was administered intravenously with the test compound 5 minutes before the administration of hemolysin and the time (second) elapsed until death was observed."}}, "note": "“And” between values parts separate entries of the source, which are not always exact repeats. Equal values may be shown once. Read-outs that look alike come from different tables or passages of the source.", "data": [{"molecule": "N=C(N)c1ccc2cc(OC(=O)[C@H]3CC[C@H](CN)CC3)ccc2c1", "note": "[Compound No. 20, 6-amidino-2-naphthyl trans-4-aminomethylcyclohexanecarboxylate]", "values": [{"measurement": "Inhibition of complement mediated hemolysis (%)", "setting": "[1]; concentration 1 × 10^-4", "value": 100, "unit": "%"}, {"measurement": "Inhibition of complement mediated hemolysis (%)", "setting": "[1]; concentration 1 × 10^-5", "value": 99, "unit": "%"}, {"measurement": "Inhibition of complement mediated hemolysis (%)", "setting": "[1]; concentration 1 × 10^-6", "value": 80, "unit": "%"}, {"measurement": "Inhibition of complement mediated hemolysis (%)", "setting": "[1]; concentration 1 × 10^-7", "value": 12, "unit": "%"}, {"measurement": "inhibition at 10 µM", "setting": "[2]", "value": 28, "unit": "%"}, {"measurement": "LD50", "setting": "[3]; ip, read-out: LD50 Mouse IP", "value": 175, "unit": "mg/kg"}, {"measurement": "LD50", "setting": "[3]; po, read-out: LD50 Mouse PO", "value": 2000, "unit": "mg/kg"}, {"measurement": "IC50", "setting": "[4]", "value": "> 10", "unit": "µM"}, {"measurement": "percentage inhibition, kallikrein (figure in parentheses)", "setting": "[5]", "value": 38, "unit": "%"}, {"measurement": "IC50", "setting": "[6]", "value": "> 10", "unit": "µM"}, {"measurement": "IC50", "setting": "[7]", "value": 4, "unit": "µM"}, {"measurement": "IC50", "setting": "[8]", "value": 5, "unit": "µM"}, {"measurement": "time elapsed until death, Average", "setting": "[9]; 1.0 mg/kg intravenously, average of 6, control average 428", "value": 442, "unit": "s"}, {"measurement": "time elapsed until death", "setting": "[9]; 1.0 mg/kg intravenously, individual animals 1-6", "value": "360 s and 365 s and 325 s and 620 s and 650 s"}, {"measurement": "time elapsed until death / survival", "setting": "[9]; 3.0 mg/kg intravenously, individual animals 1-6, ditto mark = Survival", "value": "Survival"}]}]}
